In patent publication US10183918B2, “Oxa-azaspiro compounds having activity against pain” (LABORATORIOS DEL DR. ESTEVE S.A., priority 2015, dated 2019):

Key:
[1] = molecular target: T1, human σ1 receptor (Homo sapiens, UniProt Q99720); assay: Human σ1 receptor radioligand assay; format: binding; settings: transfected HEK-293 membranes, 5 nM [3H](+)-pentazocine as radioligand
T1 construct: expressed in transfected cells; host or cells: HEK-293 (membranes)
Description: Human σ1 Receptor Radioligand Assay
To investigate binding properties of test compounds to human σ1 receptor, transfected HEK-293 membranes and [^3H](+)-pentazocine (Perkin Elmer, NET-1056), as the radioligand, were used. The assay was carried out with 7 μg of membrane suspension, 5 nM of [^3H](+)-pentazocine in either absence or presence of either buffer or 10 μM Haloperidol for total and non-specific binding, respectively. Binding buffer contained Tris-HCl 50 mM at pH 8. Plates were incubated at 37° C. for 120 minutes. After the incubation period, the reaction mix was then transferred to Multiscreen HTS, FC plates (Millipore), filtered and plates were washed 3 times with ice-cold 10 mM Tris-HCL (pH7.4). Filters were dried and counted at approximately 40% efficiency in a MicroBeta scintillation counter (Perkin-Elmer) using EcoScint liquid scintillation cocktail

[2] = molecular target: sigma-2 (σ2) site (Homo sapiens, UniProt Q5BJF2); settings: result in words, background; cited from earlier work
sigma-2 (σ2) site, sequence (Q5BJF2 whole entry): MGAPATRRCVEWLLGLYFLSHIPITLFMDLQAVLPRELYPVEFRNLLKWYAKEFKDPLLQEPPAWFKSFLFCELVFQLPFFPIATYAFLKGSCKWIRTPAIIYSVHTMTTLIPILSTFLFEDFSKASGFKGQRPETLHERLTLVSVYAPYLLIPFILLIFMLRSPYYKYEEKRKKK

T1 sequence (Q99720 whole entry): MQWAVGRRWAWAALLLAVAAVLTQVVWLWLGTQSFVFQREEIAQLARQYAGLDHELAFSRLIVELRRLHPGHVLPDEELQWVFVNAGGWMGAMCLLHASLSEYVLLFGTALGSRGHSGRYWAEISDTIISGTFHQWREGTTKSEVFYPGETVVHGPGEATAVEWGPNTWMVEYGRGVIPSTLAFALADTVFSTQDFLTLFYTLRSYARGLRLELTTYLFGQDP

Molecule | Ki [1] | affinity for the sigma-2 (σ2) site [2]
CCN1C[C@]2(CC[C@@H](NCc3ccccc3)CC2)OC(C)(C)C1=O [Example 40, (6r,9r)-9-(benzylamino)-4-ethyl-2,2-dimethyl-1-oxa-4-azaspiro[5.5]undecan-3-one] | ≥ 500 nM | 
CCN1C[C@]2(CC[C@H](N(C)Cc3ccccc3)CC2)OCC1=O [Example 41, (6s,9s)-9-(benzyl(methyl)amino)-4-ethyl-1-oxa-4-azaspiro[5.5]undecan-3-one] | < 500 nM | 
CCN1C[C@]2(CC[C@@H](N(C)Cc3ccccc3)CC2)OCC1=O [Example 42, (6r,9r)-9-(benzyl(methyl)amino)-4-ethyl-1-oxa-4-azaspiro[5.5]undecan-3-one] | < 100 nM | 
CCN1C[C@]2(CC[C@H](N(C)Cc3ccccc3)CC2)OC(C)(C)C1=O [Example 43, (6s,9s)-9-(benzyl(methyl)amino)-4-ethyl-2,2-dimethyl-1-oxa-4-azaspiro[5.5]undecan-3-one] | < 100 nM | 
CCN1C[C@]2(CC[C@@H](N(C)Cc3ccccc3)CC2)OC(C)(C)C1=O [Example 44, (6r,9r)-9-(benzyl(methyl)amino)-4-ethyl-2,2-dimethyl-1-oxa-4-azaspiro[5.5]undecan-3-one] | < 500 nM | 
CN(Cc1ccccc1)[C@H]1CC[C@@]2(CC1)CN(C(=O)c1ccccc1)CC1(CC1)O2 [Example 45, ((5s,8s)-8-[Benzyl(methyl)amino]-4-oxa-12-azadispiro[2.1.5.3]tridecan-12-yl)(phenyl)methanone] | < 100 nM | 
CN(Cc1ccccc1)[C@H]1CC[C@]2(CC1)CN(C(=O)c1ccccc1)CC1(CC1)O2 [Example 46, ((5r,8r)-8-[Benzyl(methyl)amino]-4-oxa-12-azadispiro[2.1.5.3]tridecan-12-yl)(phenyl)methanone] | < 500 nM | 
CCN1C[C@]2(CC[C@H](NC)CC2)OCC1=O [Example 47, (6s,9s)-4-ethyl-9-(methylamino)-1-oxa-4-azaspiro[5.5]undecan-3-one acetate] | ≥ 500 nM | 
CCN1C[C@]2(CC[C@H](NC)CC2)OC(C)(C)C1=O [Example 48, (6s,9s)-4-ethyl-2,2-dimethyl-9-(methylamino)-1-oxa-4-azaspiro[5.5]undecan-3-one acetate] | ≥ 500 nM | 
CCN1C[C@]2(CC[C@@H](NC)CC2)OC(C)(C)C1=O [Example 49, (6r,9r)-4-ethyl-2,2-dimethyl-9-(methylamino)-1-oxa-4-azaspiro[5.5]undecan-3-one acetate] | ≥ 500 nM | 
CN[C@H]1CC[C@@]2(CC1)CN(C(=O)c1ccccc1)CC1(CC1)O2 [Example 50, ((5s,8s)-8-(methylamino)-4-oxa-12-azadispiro[2.1.5.3]tridecan-12-yl)(phenyl)methanone acetate] | ≥ 500 nM | 
CCN1C[C@]2(CC[C@H](N(C)CCc3ccccc3)CC2)OCC1=O [Example 51, (6s,9s)-4-ethyl-9-(methyl(phenethyl)amino)-1-oxa-4-azaspiro[5.5]undecan-3-one] | < 500 nM | 
CCN1C[C@]2(CC[C@H](N(C)CCC(C)C)CC2)OCC1=O [Example 52, (6s,9s)-4-ethyl-9-(isopentyl(methyl)amino)-1-oxa-4-azaspiro[5.5]undecan-3-one] | < 500 nM | 
CCN1C[C@]2(CC[C@H](N(C)CCC(C)C)CC2)OC(C)(C)C1=O [Example 53, (6s,9s)-4-ethyl-9-(isopentyl(methyl)amino)-2,2-dimethyl-1-oxa-4-azaspiro[5.5]undecan-3-one] | < 500 nM | 
CCN1C[C@]2(CC[C@H](N(C)CC(C)C)CC2)OC(C)(C)C1=O [Example 54, (6s,9s)-4-ethyl-9-(isobutyl(methyl)amino)-2,2-dimethyl-1-oxa-4-azaspiro[5.5]undecan-3-one] | < 500 nM | 
CCN1C[C@]2(CC[C@H](N(C)CCc3ccccc3)CC2)OC(C)(C)C1=O [Example 55, (6s,9s)-4-ethyl-2,2-dimethyl-9-(methyl(phenethyl)amino)-1-oxa-4-azaspiro[5.5]undecan-3-one] | < 100 nM | 
CCN1C[C@]2(CC[C@@H](N(C)CCc3ccccc3)CC2)OC(C)(C)C1=O [Example 56, (6r,9r)-4-ethyl-2,2-dimethyl-9-(methyl(phenethyl)amino)-1-oxa-4-azaspiro[5.5]undecan-3-one] | < 100 nM | 
CCN1C[C@]2(CC[C@@H](N(C)CCC(C)C)CC2)OC(C)(C)C1=O [Example 57, (6r,9r)-4-ethyl-9-(isopentyl(methyl)amino)-2,2-dimethyl-1-oxa-4-azaspiro[5.5]undecan-3-one] | < 100 nM | 
CN(CCc1ccccc1)[C@H]1CC[C@@]2(CC1)CN(C(=O)c1ccccc1)CC1(CC1)O2 [Example 58, ((5s,8s)-8-[methyl(phenethyl)amino]-4-oxa-12-azadispiro[2.1.5.3]tridecan-12-yl)(phenyl)methanone] | < 500 nM | 
CC(C)CCN(C)[C@H]1CC[C@@]2(CC1)CN(C(=O)c1ccccc1)CC1(CC1)O2 [Example 59, ((5s,8s)-8-[isopentyl(methyl)amino]-4-oxa-12-azadispiro[2.1.5.3]tridecan-12-yl)(phenyl)methanone] | < 500 nM | 
CC(C)CN(C)[C@H]1CC[C@@]2(CC1)CN(C(=O)c1ccccc1)CC1(CC1)O2 [Example 60, ((5s,8s)-8-[isobutyl(methyl)amino]-4-oxa-12-azadispiro[2.1.5.3]tridecan-12-yl)(phenyl)methanone] | < 500 nM | 
CCN1CCO[C@]2(CC[C@@H](N(C)CCc3ccccc3)CC2)C1 [Example 61, (6s,9s)-4-ethyl-N-methyl-N-phenethyl-1-oxa-4-azaspiro[5.5]undecan-9-amine] | < 100 nM | 
CCN1CC(C)(C)O[C@]2(CC[C@@H](N(C)Cc3ccccc3)CC2)C1 [Example 62, (6s,9s)-N-benzyl-4-ethyl-N,2,2-trimethyl-1-oxa-4-azaspiro[5.5]undecan-9-amine] | < 100 nM | 
CCN1CCO[C@]2(CC[C@@H](N(C)CCC(C)C)CC2)C1 [Example 63, (6s,9s)-4-ethyl-N-isopentyl-N-methyl-1-oxa-4-azaspiro[5.5]undecan-9-amine] | < 500 nM | 
CCN1CC(C)(C)O[C@]2(CC[C@@H](N(C)CCC(C)C)CC2)C1 [Example 64, (6s,9s)-4-ethyl-N-isopentyl-N,2,2-trimethyl-1-oxa-4-azaspiro[5.5]undecan-9-amine] | < 100 nM | 
CCN1CC(C)(C)O[C@]2(CC[C@@H](N(C)CC(C)C)CC2)C1 [Example 65, (6s,9s)-4-ethyl-N-isobutyl-N,2,2-trimethyl-1-oxa-4-azaspiro[5.5]undecan-9-amine] | < 100 nM | 
CCN1CC(C)(C)O[C@]2(CC[C@@H](N(C)CCc3ccccc3)CC2)C1 [Example 66, (6s,9s)-4-ethyl-N,2,2-trimethyl-N-phenethyl-1-oxa-4-azaspiro[5.5]undecan-9-amine] | < 100 nM | 
CN(CCc1ccccc1)[C@H]1CC[C@@]2(CC1)CN(Cc1ccccc1)CC1(CC1)O2 [Example 67, (5s,8s)-12-benzyl-N-methyl-N-(2-phenylethyl)-4-oxa-12-azadispiro[2.1.5.3]tridecan-8-amine] | < 100 nM | 
CC(C)CN(C)[C@H]1CC[C@@]2(CC1)CN(Cc1ccccc1)CC1(CC1)O2 [Example 68, (5s,8s)-12-benzyl-N-isobutyl-N-methyl-4-oxa-12-azadispiro[2.1.5.3]tridecan-8-amine] | < 100 nM | 
(+)SKF-10047 |  | micromolar affinity
